Experimental findings from paper PMC3923627 (Cell reports, 2013) are described below.

In the assay the target is p300 histone acetyltransferase (Homo sapiens, UniProt Q09472). The assay can be described thus: in vitro histone acetyltransferase assay with purified human p300. The assay is classed as biochemical.
Chain of p300 histone acetyltransferase (Q09472 2-2414): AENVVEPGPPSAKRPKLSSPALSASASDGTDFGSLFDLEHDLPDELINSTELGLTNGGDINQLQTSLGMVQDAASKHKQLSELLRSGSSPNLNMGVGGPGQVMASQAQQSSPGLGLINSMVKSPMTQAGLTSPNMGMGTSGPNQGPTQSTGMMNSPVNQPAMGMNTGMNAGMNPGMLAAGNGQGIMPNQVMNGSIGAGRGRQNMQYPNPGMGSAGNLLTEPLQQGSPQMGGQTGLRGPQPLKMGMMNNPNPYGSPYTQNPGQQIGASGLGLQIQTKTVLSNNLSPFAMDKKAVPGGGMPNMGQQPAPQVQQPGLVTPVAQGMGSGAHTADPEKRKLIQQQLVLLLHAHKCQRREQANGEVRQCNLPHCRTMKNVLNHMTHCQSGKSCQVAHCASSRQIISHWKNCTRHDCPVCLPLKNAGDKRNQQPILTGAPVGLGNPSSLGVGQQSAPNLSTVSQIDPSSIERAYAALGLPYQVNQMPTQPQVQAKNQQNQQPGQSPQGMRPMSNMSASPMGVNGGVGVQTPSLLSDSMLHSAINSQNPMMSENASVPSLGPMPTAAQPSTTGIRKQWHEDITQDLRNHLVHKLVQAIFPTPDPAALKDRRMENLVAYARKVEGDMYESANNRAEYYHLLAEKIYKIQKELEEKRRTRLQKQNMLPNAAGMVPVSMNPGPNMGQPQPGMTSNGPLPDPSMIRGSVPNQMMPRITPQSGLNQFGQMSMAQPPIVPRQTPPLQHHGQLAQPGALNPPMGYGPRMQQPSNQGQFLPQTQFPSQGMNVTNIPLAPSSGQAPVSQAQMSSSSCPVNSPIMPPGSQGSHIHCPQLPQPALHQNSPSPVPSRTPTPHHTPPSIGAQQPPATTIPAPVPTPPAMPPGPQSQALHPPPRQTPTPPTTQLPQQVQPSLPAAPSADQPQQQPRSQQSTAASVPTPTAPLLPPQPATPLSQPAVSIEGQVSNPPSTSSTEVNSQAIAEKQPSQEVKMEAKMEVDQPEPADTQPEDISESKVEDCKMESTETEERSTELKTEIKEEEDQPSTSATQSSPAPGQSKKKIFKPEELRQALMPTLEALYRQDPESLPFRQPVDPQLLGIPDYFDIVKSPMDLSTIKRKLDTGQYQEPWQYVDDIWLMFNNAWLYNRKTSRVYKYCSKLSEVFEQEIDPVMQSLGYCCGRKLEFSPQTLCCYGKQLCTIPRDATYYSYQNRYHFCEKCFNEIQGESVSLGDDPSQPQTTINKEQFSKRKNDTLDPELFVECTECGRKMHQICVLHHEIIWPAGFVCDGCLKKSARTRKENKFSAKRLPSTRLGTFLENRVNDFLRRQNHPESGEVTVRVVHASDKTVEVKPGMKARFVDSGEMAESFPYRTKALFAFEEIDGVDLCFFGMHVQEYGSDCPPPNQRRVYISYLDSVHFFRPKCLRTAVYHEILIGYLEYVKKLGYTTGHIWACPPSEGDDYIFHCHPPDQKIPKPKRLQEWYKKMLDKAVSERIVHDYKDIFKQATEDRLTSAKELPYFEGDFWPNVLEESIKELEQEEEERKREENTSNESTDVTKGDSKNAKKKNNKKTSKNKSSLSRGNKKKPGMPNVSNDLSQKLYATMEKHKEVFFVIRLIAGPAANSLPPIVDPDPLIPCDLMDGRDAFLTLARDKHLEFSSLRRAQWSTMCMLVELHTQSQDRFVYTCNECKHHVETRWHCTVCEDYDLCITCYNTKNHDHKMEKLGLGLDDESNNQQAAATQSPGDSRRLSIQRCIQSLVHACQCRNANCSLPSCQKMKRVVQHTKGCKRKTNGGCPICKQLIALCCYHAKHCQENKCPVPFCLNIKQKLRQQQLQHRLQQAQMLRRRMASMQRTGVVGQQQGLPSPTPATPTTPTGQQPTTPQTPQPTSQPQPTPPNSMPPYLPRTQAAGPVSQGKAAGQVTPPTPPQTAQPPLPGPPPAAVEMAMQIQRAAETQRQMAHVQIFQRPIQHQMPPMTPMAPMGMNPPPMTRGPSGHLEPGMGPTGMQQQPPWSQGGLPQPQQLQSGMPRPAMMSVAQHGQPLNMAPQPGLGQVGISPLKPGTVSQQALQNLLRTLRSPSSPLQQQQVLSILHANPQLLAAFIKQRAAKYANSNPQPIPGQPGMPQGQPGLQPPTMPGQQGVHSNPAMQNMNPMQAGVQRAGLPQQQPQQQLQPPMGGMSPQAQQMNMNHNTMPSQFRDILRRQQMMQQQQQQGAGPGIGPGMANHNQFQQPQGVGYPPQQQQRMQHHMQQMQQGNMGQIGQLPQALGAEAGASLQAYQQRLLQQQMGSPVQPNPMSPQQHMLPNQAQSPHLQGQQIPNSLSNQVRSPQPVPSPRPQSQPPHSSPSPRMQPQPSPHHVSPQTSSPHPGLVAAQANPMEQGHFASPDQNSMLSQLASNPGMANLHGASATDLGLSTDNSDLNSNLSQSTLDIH

Regarding `COc1ccc(/C(Cl)=C(/C=O)c2ccc(OC)cc2)cc1` [WD, (Z) 3-chloro-2,3-bis(4-methoxyphenyl)acrylaldehyde], the IC50 (in general, the concentration at which inhibition is half-maximal) was 4.2 µM.
